Earlier results as cited in US8529907B2, “Methods of treating ophthalmic disorders” (Nikken Sohonsha Corporation, priority 2008, dated 2013).

Legend:
RP patients = conditions: 15,000 U/d

CC1=C(/C=C/C(C)=C\C=C\C(C)=C\C=O)C(C)(C)CCC1 [9-cis-retinal]
rescue of mutant opsin P23H (mutant opsin P23H): effectively rescued | duration of supported rod retinal function post-treatment (Rpe65-deficient mice; early intervention): more than 6 months | retinal ester accumulation (Rpe65-deficient mice; early intervention): significantly attenuated | rod photopigment and rod physiology (Rpe65-deficient mice; oral, within 48 h, Rpe65-deficient mice): formation of rod photopigment and dramatic improvement in rod physiology

CC1=C(/C=C/C(C)=C/C=C/C(C)=C/C=O)C(C)(C)CCC1 [11-cis-retinal]
rescue of mutant opsin P23H (mutant opsin P23H): effectively rescued

CCCCCCCCCCCCCCCC(=O)OC/C=C(C)/C=C/C=C(C)/C=C/C1=C(C)CCCC1(C)C [Vitamin A palmitate]
slowing of the progress of RP (RP patients): about 2 % per year
